2 compounds from patent publication US6525022B1, “Receptor specific atrial natriuretic peptides” (Genentech, Inc., priority 1993, dated 2003) can be followed below.

Where a SMILES comes first, the peptide text is derived from it. Bridges are numbered along the chain shown (N, C = ends).

The test deals with T1, membrane preparation from rhesus monkey lung (Macaca mulatta, UniProt F7HE88).
T1 construct: from tissue; host or cells: rhesus monkey lung membranes
T1 sequence (F7HE88 33-1061): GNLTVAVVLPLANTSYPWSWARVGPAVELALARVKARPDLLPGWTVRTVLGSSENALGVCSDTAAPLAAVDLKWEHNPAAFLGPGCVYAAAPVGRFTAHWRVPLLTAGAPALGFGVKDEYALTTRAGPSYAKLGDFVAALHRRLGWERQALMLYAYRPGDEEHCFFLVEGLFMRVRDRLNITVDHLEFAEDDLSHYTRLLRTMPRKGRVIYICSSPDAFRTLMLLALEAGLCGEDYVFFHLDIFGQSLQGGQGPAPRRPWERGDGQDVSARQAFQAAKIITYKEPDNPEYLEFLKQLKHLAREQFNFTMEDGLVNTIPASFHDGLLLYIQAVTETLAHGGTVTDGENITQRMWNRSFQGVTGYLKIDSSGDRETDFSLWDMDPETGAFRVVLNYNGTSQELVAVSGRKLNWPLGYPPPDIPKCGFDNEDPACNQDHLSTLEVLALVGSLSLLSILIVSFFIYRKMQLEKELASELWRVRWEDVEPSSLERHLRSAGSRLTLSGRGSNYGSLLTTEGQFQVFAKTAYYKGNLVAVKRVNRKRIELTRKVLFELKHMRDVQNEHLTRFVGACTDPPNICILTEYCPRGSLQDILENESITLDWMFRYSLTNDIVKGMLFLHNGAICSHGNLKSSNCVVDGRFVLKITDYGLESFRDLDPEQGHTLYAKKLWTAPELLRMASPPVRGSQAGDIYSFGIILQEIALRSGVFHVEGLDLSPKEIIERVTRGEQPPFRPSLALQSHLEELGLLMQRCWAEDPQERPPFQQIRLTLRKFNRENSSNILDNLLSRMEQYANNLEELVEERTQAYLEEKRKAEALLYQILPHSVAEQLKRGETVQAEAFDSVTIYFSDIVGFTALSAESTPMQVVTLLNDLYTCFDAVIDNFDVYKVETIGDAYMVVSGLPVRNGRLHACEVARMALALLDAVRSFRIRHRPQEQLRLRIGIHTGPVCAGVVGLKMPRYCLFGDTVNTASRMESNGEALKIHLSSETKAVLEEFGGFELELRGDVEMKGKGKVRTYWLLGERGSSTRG
As to the kind of experiment: cGMP stimulation of rhesus lung membranes. To be noted: FIG. 13, rhesus monkey lung membranes. It counts as biochemical. The protocol:
For preparation of membranes from Rhesus monkey tissues, frozen tissue was placed between parafilm and broken up into pieces by hitting with a hammer. Tissue was transferred to a 125 mL polypropylene tube containing 100 mL of ice-cold buffer #1 (50 mM HEPES, pH 7.4, 1 mM EDTA, 250 mM sucrose, 0.7 mg/mL pepstatin A, 0.5 mg/mL leupeptin, 1 mM PMSF, and 1 mM phosphoramidon). Tissue was homogenized with a Brinkman polytron on a setting of 5 two times for 10 sec. The sample was placed on ice between homogenizations. 11 mL of 30 mM MgCl2/100 mM NaCl containing 1 mM phosphoramidon was added to the homogenate. The homogenate was spun at 400×g for 10 min at 4° C. in a HB-4 rotor. The supernatant was transferred to another tube and spun as above. The supernatant was passed though four layers of sterile gauze then centrifuged at 30,000×g for 20 min at 4° C. in a 60 Ti rotor. The pellet was resuspended in 3-5 mL of buffer #2 (50 mM HEPES, pH 7.4, 0.1 mM EDTA, 5 mM MgCl2, 100 mM NaCl, 0.7 mg/mL pepstatin A, 0.5 mg/mL leupeptin, 1 mM PMSF, and 1 mM phosphoramidon), using a 7 mL Wheaton Dounce with a B pestle. Aliquots were stored at −80° C. […]
Data analysis. The competition binding curves and cGMP production dose responses were analyzed by the four-parameter logistic equation with the KaleidaGraph™ program (Synergy Software, PA) to obtain estimates of the IC50 or EC50 values. […]

Turning to `CC[C@H](C)[C@@H]1NC(=O)[C@H](CCCNC(=N)N)NC(=O)[C@H](CC(=O)O)NC(=O)[C@H]([C@@H](C)CC)NC(=O)[C@H](CO)NC(=O)CNC(=O)[C@H]([C@@H](C)O)NC(=O)[C@H](Cc2ccccc2)NC[C@@H](NC(=O)[C@H](CO)NC(=O)[C@H](CO)NC(=O)[C@H](CCCNC(=N)N)NC(=O)[C@H](CCCNC(=N)N)NC(=O)[C@H](CC(C)C)NC(=O)[C@@H](N)CO)CSSC[C@@H](C(=O)N[C@@H](CC(N)=O)C(=O)N[C@@H](CO)C(=O)N[C@@H](Cc2ccccc2)C(=O)N[C@@H](CCCNC(=N)N)C(=O)N[C@@H](Cc2ccc(O)cc2)C(=O)O)NC(=O)CNC(=O)[C@H](CC(C)C)NC(=O)CNC(=O)[C@H](CO)NC(=O)[C@H](CCC(N)=O)NC(=O)[C@H](C)NC(=O)[C@H](CCCNC(=N)N)NC1=O` [ANF 84], the “Potency in stimulation of cGMP production compared with rat ANP” value is listed as “more potent than rat ANP”.

`CC[C@H](C)[C@@H]1NC(=O)[C@H](CCCNC(=N)N)NC(=O)[C@H](CC(=O)O)NC(=O)[C@H]([C@@H](C)CC)NC(=O)[C@H](CO)NC(=O)CNC(=O)[C@H]([C@@H](C)O)NC(=O)[C@H](Cc2ccccc2)NC(=O)[C@@H](NC(=O)[C@H](CO)NC(=O)[C@H](CO)NC(=O)[C@H](CCCNC(=N)N)NC(=O)[C@H](CCCNC(=N)N)NC(=O)[C@H](CC(C)C)NC(=O)[C@H](CO)NC(=O)[C@H](CCCNC(=N)N)NC(=O)[C@@H]2CCCN2C(=O)[C@H](C)NC(=O)[C@@H](N)[C@@H](C)O)CSSC[C@@H](C(=O)N[C@@H](CC(N)=O)C(=O)N[C@@H](CO)C(=O)N[C@@H](Cc2ccccc2)C(=O)N[C@@H](CCCNC(=N)N)C(=O)N[C@@H](Cc2ccc(O)cc2)C(=O)O)NC(=O)CNC(=O)[C@H](CC(C)C)NC(=O)CNC(=O)[C@H](CO)NC(=O)[C@H](CCC(N)=O)NC(=O)[C@H](C)NC(=O)[C@H](CCCNC(=N)N)NC1=O` [ANF 76] (H-TAPRSLRRSSCFTGSIDRIRAQSGLGCNSFRY-OH; disulfide 11-27; C-terminus assumed): the “Potency in stimulation of cGMP production compared with rat ANP” value is on record as “more potent than rat ANP”.
